#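 Interpolation was linear, between the two tested concentrations surrounding the appropriate level; five concentrations were tested over 48 hours in 96-well plates. GI50 = concentration required for 50% inhibition of growth.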 The source made the active and inactive calls. Cut-off read from the data, not from the text of the source: active = GI50 up to about 1.1 µM and inactive = higher. Residues, ends and D or L forms follow the SMILES beside them. *: point of attachment. Boc = CC(C)(C)OC(=O)*; OBn = c1ccc(CO*)cc1
# Legend:
# Experiment in all cases: NCI anticancer screen, dose series, 48 h
# TK-10 = system: TK-10
# NCI-H23 = system: NCI-H23
# MDA-N = system: MDA-N
# MDA-MB-435 = system: MDA-MB-435
# MDA-MB-231 = system: MDA-MB-231
# T47D = system: T47D
# SF-268 = system: SF-268
# CCRF-CEM = system: CCRF-CEM
# SNB-75 = system: SNB-75
# A549 = system: A549
# RXF 393 = system: RXF 393
# MOLT-4 = system: MOLT-4
# HOP-62 = system: HOP-62
# NCI-H226 = system: NCI-H226
# OVCAR-3 = system: OVCAR-3
# Malme-3M = system: Malme-3M
# IGROV-1 = system: IGROV-1
# NCI/ADR-RES = system: NCI/ADR-RES
# 786-0 = system: 786-0
# NCI-H460 = system: NCI-H460
SMILES,GI50 (TK-10),GI50 (NCI-H23),GI50 (MDA-N),GI50 (MDA-MB-435),GI50 (MDA-MB-231),GI50 (T47D),GI50 (SF-268),GI50 (CCRF-CEM),GI50 (SNB-75),GI50 (A549),GI50 (RXF 393),GI50 (MOLT-4),GI50 (HOP-62),GI50 (NCI-H226),GI50 (OVCAR-3),GI50 (Malme-3M),GI50 (IGROV-1),GI50 (NCI/ADR-RES),GI50 (786-0),GI50 (NCI-H460)
O=S(=O)(c1ccc(Br)cc1)N1CCN(S(=O)(=O)c2ccc(Br)cc2)CC1,> 100 µM (inactive),> 100 µM (inactive),> 100 µM (inactive),> 100 µM (inactive),> 100 µM (inactive),> 100 µM (inactive),> 100 µM (inactive),> 100 µM (inactive),> 100 µM (inactive),> 100 µM (inactive),> 100 µM (inactive),1.71 µM (inactive),> 100 µM (inactive),> 100 µM (inactive),> 100 µM (inactive),> 100 µM (inactive),> 100 µM (inactive),> 100 µM (inactive),> 100 µM (inactive),–
C=C1C(=O)[C@@]23CC[C@@H]4[C@@]5(C)CCC[C@@]4(OC5=O)[C@@]2(C)CC[C@@H]1C3,1.11 µM (active),1.94 µM (inactive),1.87 µM (inactive),1.83 µM (inactive),1.73 µM (inactive),4.89 µM (inactive),1.72 µM (inactive),0.303 µM (active),2.8 µM (inactive),3.28 µM (inactive),1.01 µM (active),1.75 µM (inactive),2.84 µM (inactive),2.08 µM (inactive),1.78 µM (inactive),1.6 µM (inactive),1.72 µM (inactive),3.08 µM (inactive),0.565 µM (active),1.41 µM (inactive)
C/C(=N\Nc1cc(CN2CCCC2)c(-c2ccc(Cl)cc2)nn1)C(=O)O,> 100 µM (inactive),> 100 µM (inactive),> 100 µM (inactive),> 100 µM (inactive),> 100 µM (inactive),> 100 µM (inactive),> 100 µM (inactive),> 100 µM (inactive),> 100 µM (inactive),> 100 µM (inactive),> 100 µM (inactive),> 100 µM (inactive),> 100 µM (inactive),> 100 µM (inactive),90.2 µM (inactive),> 100 µM (inactive),> 100 µM (inactive),> 100 µM (inactive),> 100 µM (inactive),> 100 µM (inactive)
COC/C=C\[C@]1(O)CCCC[C@@H]1CC(OC)OC,> 100 µM (inactive),> 100 µM (inactive),> 100 µM (inactive),> 100 µM (inactive),> 100 µM (inactive),> 100 µM (inactive),> 100 µM (inactive),37.1 µM (inactive),> 100 µM (inactive),> 100 µM (inactive),> 100 µM (inactive),23.4 µM (inactive),> 100 µM (inactive),> 100 µM (inactive),> 100 µM (inactive),> 100 µM (inactive),> 100 µM (inactive),> 100 µM (inactive),> 100 µM (inactive),> 100 µM (inactive)
CCOC(=O)C1C(c2ccco2)C2(C#N)C(=N)OC1(C)C2(C#N)C#N (stereo unspecified),> 100 µM (inactive),> 100 µM (inactive),> 100 µM (inactive),> 100 µM (inactive),> 100 µM (inactive),> 100 µM (inactive),> 100 µM (inactive),> 100 µM (inactive),57.7 µM (inactive),> 100 µM (inactive),> 100 µM (inactive),> 100 µM (inactive),–,> 100 µM (inactive),–,> 100 µM (inactive),> 100 µM (inactive),> 100 µM (inactive),> 100 µM (inactive),–
O=c1c2cnccc2cc2c3ccccc3ccn12,24.3 µM (inactive),51.6 µM (inactive),> 100 µM (inactive),97.3 µM (inactive),> 100 µM (inactive),32.4 µM (inactive),86.1 µM (inactive),36.6 µM (inactive),61 µM (inactive),45.8 µM (inactive),> 100 µM (inactive),5.21 µM (inactive),> 100 µM (inactive),> 100 µM (inactive),> 100 µM (inactive),57.3 µM (inactive),6.15 µM (inactive),> 100 µM (inactive),84.7 µM (inactive),5.78 µM (inactive)
COc1nc2ncc([C@@H](O)[C@H](O)CO)nc2c(=O)n1C,> 100 µM (inactive),–,> 100 µM (inactive),> 100 µM (inactive),> 100 µM (inactive),> 100 µM (inactive),> 100 µM (inactive),> 100 µM (inactive),> 100 µM (inactive),> 100 µM (inactive),> 100 µM (inactive),> 100 µM (inactive),> 100 µM (inactive),> 100 µM (inactive),> 100 µM (inactive),> 100 µM (inactive),> 100 µM (inactive),> 100 µM (inactive),> 100 µM (inactive),> 100 µM (inactive)
O=C1C(NCCc2cc(Br)c(O)c(Br)c2)=CC(=O)c2ncccc21,17.1 µM (inactive),0.659 µM (active),1.82 µM (inactive),1.69 µM (inactive),10.2 µM (inactive),13.5 µM (inactive),8.32 µM (inactive),3.39 µM (inactive),1.31 µM (inactive),3.52 µM (inactive),7.93 µM (inactive),6.71 µM (inactive),3.28 µM (inactive),2.29 µM (inactive),1.84 µM (inactive),1.26 µM (inactive),4.15 µM (inactive),9.2 µM (inactive),7.29 µM (inactive),2.37 µM (inactive)
CC(NC(=O)CNC(=O)OC(C)(C)C)C(=O)NC(Cc1ccccc1)C(=O)OCc1ccccc1 (stereo not drawn) (Boc-Gly-Ala-Phe-OBn; configuration not given here),> 100 µM (inactive),> 100 µM (inactive),> 100 µM (inactive),> 100 µM (inactive),> 100 µM (inactive),> 100 µM (inactive),86.9 µM (inactive),40.9 µM (inactive),56.2 µM (inactive),> 100 µM (inactive),> 100 µM (inactive),36 µM (inactive),–,75.7 µM (inactive),–,63.4 µM (inactive),> 100 µM (inactive),> 100 µM (inactive),27.9 µM (inactive),–
CC[C@@]1(O)C(=O)OCc2c1cc1n(c2=O)Cc2c-1nc1ccc(O)cc1c2[Si](C)(C)C(C)(C)C [AR-67],0.443 µM (active),< 0.01 µM (active),< 0.0132 µM (active),< 0.01 µM (active),0.286 µM (active),< 0.01 µM (active),< 0.01 µM (active),< 0.01 µM (active),< 0.01 µM (active),< 0.01 µM (active),< 0.01 µM (active),< 0.01 µM (active),–,< 0.01 µM (active),0.0261 µM (active),< 0.01 µM (active),< 0.019 µM (active),0.0324 µM (active),< 0.01 µM (active),< 0.01 µM (active)
